Test results: the supplement of paper PMC10307832

How the values were obtained:
Test in all cases: relative viability (nuclei count vs DMSO), 5 days (fraction); higher = more cells survive
HCC-78 = tested on: HCC-78
How it was run: (§1)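 Lung cancer cell lines in 1536-well plates got either a single drug or a fixed anchor-drug dose together with five library-drug doses (not always all listed) in √10 steps, by pin tool, on the day after seeding. Nuclei were counted after 5 days, and relative viability is the treated-to-vehicle ratio of nuclei counts. Values are medians of duplicate plates.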

NCI-H23 = tested on: NCI-H23
How it was run: as §1

EMC-BAC-2 = tested on: EMC-BAC-2
How it was run: as §1

NCI-H1944 = tested on: NCI-H1944
How it was run: as §1

HCC-15 = tested on: HCC-15
How it was run: as §1

COR-L23 = tested on: COR-L23
How it was run: as §1

LC-2-ad = tested on: LC-2-ad
How it was run: as §1

A-427 = tested on: A-427
How it was run: as §1

NCI-H1993 = tested on: NCI-H1993
How it was run: as §1

NCI-H1793 = tested on: NCI-H1793
How it was run: as §1

NCI-H2009 = tested on: NCI-H2009
How it was run: as §1

HARA = tested on: HARA
How it was run: as §1

NCI-H2228 = tested on: NCI-H2228
How it was run: as §1

NCI-H2023 = tested on: NCI-H2023
How it was run: as §1

NCI-H1650 = tested on: NCI-H1650
How it was run: as §1

ChaGo-K-1 = tested on: ChaGo-K-1
How it was run: as §1

NCI-H838 = tested on: NCI-H838
How it was run: as §1

SK-LU-1 = tested on: SK-LU-1
How it was run: as §1

NCI-H2405 = tested on: NCI-H2405
How it was run: as §1

UMC-11 = tested on: UMC-11
How it was run: as §1

LK-2 = tested on: LK-2
How it was run: as §1

ABC-1 = tested on: ABC-1
How it was run: as §1

NCI-H1734 = tested on: NCI-H1734
How it was run: as §1

HCC-366 = tested on: HCC-366
How it was run: as §1

## COc1cc(N2CCC(C(N)=O)CC2)ccc1Nc1nc(N)c(Cl)c(Nc2ccccc2S(=O)(=O)C(C)C)n1 [HG-5-88-01] + CS(=O)(=O)N1CCN(Cc2cc3nc(-c4cccc5[nH]ncc45)nc(N4CCOCC4)c3s2)CC1 [Pictilisib] (partner 1 µM)
HCC-78; first compound 0.04 µM
  relative viability: 0.204
HCC-78; first compound 0.1265 µM
  relative viability: 0.19
HCC-78; first compound 0.4 µM
  relative viability: 0.153
HCC-78; first compound 1.265 µM
  relative viability: 0.167
HCC-78; first compound 4 µM
  relative viability: 0.157
NCI-H23; first compound 0.04 µM
  relative viability: 0.382
NCI-H23; first compound 0.1265 µM
  relative viability: 0.572
NCI-H23; first compound 0.4 µM
  relative viability: 0.469
NCI-H23; first compound 1.265 µM
  relative viability: 0.533
NCI-H23; first compound 4 µM
  relative viability: 0.35
EMC-BAC-2; first compound 0.04 µM
  relative viability: 0.531
EMC-BAC-2; first compound 0.1265 µM
  relative viability: 0.509
EMC-BAC-2; first compound 0.4 µM
  relative viability: 0.495
EMC-BAC-2; first compound 1.265 µM
  relative viability: 0.554
EMC-BAC-2; first compound 4 µM
  relative viability: 0.505
NCI-H1944; first compound 0.04 µM
  relative viability: 0.319
NCI-H1944; first compound 0.1265 µM
  relative viability: 0.341
NCI-H1944; first compound 0.4 µM
  relative viability: 0.336
NCI-H1944; first compound 1.265 µM
  relative viability: 0.334
NCI-H1944; first compound 4 µM
  relative viability: 0.352
HCC-15; first compound 0.04 µM
  relative viability: 0.844
HCC-15; first compound 0.1265 µM
  relative viability: 0.831
HCC-15; first compound 0.4 µM
  relative viability: 0.741
HCC-15; first compound 1.265 µM
  relative viability: 0.798
HCC-15; first compound 4 µM
  relative viability: 0.515
COR-L23; first compound 0.04 µM
  relative viability: 0.629
COR-L23; first compound 0.1265 µM
  relative viability: 0.725
COR-L23; first compound 0.4 µM
  relative viability: 0.608
COR-L23; first compound 1.265 µM
  relative viability: 0.371
COR-L23; first compound 4 µM
  relative viability: 0.353
LC-2-ad; first compound 0.04 µM
  relative viability: 0.429
LC-2-ad; first compound 0.1265 µM
  relative viability: 0.491
LC-2-ad; first compound 0.4 µM
  relative viability: 0.366
LC-2-ad; first compound 1.265 µM
  relative viability: 0.448
LC-2-ad; first compound 4 µM
  relative viability: 0.334
A-427; first compound 0.04 µM
  relative viability: 0.716
A-427; first compound 0.1265 µM
  relative viability: 0.812
A-427; first compound 0.4 µM
  relative viability: 0.706
A-427; first compound 1.265 µM
  relative viability: 0.914
A-427; first compound 4 µM
  relative viability: 0.442
NCI-H1993; first compound 0.04 µM
  relative viability: 0.689
NCI-H1993; first compound 0.1265 µM
  relative viability: 0.829
NCI-H1993; first compound 0.4 µM
  relative viability: 0.606
NCI-H1993; first compound 1.265 µM
  relative viability: 1.04
NCI-H1993; first compound 4 µM
  relative viability: 0.873
NCI-H1793; first compound 0.1265 µM
  relative viability: 0.336
NCI-H1793; first compound 0.4 µM
  relative viability: 0.3
NCI-H1793; first compound 1.265 µM
  relative viability: 0.426
NCI-H1793; first compound 4 µM
  relative viability: 0.308
NCI-H2009; first compound 0.04 µM
  relative viability: 0.771
NCI-H2009; first compound 0.1265 µM
  relative viability: 0.882
NCI-H2009; first compound 0.4 µM
  relative viability: 0.693
NCI-H2009; first compound 1.265 µM
  relative viability: 0.793
NCI-H2009; first compound 4 µM
  relative viability: 0.631
HARA; first compound 0.04 µM
  relative viability: 0.438
HARA; first compound 0.1265 µM
  relative viability: 0.358
HARA; first compound 0.4 µM
  relative viability: 0.414
HARA; first compound 1.265 µM
  relative viability: 0.411
HARA; first compound 4 µM
  relative viability: 0.301
NCI-H2228; first compound 0.04 µM
  relative viability: 0.215
NCI-H2228; first compound 0.1265 µM
  relative viability: 0.177
NCI-H2228; first compound 0.4 µM
  relative viability: 0.248
NCI-H2228; first compound 1.265 µM
  relative viability: 0.144
NCI-H2228; first compound 4 µM
  relative viability: 0.157
NCI-H2023; first compound 0.04 µM
  relative viability: 0.222
NCI-H2023; first compound 0.1265 µM
  relative viability: 0.245
NCI-H2023; first compound 0.4 µM
  relative viability: 0.16
NCI-H2023; first compound 1.265 µM
  relative viability: 0.159
NCI-H2023; first compound 4 µM
  relative viability: 0.171
NCI-H1650; first compound 0.04 µM
  relative viability: 0.583
NCI-H1650; first compound 0.1265 µM
  relative viability: 0.551
NCI-H1650; first compound 0.4 µM
  relative viability: 0.565
NCI-H1650; first compound 1.265 µM
  relative viability: 0.519
NCI-H1650; first compound 4 µM
  relative viability: 0.355
ChaGo-K-1; first compound 0.04 µM
  relative viability: 0.794
ChaGo-K-1; first compound 0.1265 µM
  relative viability: 0.785
ChaGo-K-1; first compound 0.4 µM
  relative viability: 0.679
ChaGo-K-1; first compound 1.265 µM
  relative viability: 0.863
ChaGo-K-1; first compound 4 µM
  relative viability: 0.556
NCI-H838; first compound 0.04 µM
  relative viability: 0.312
NCI-H838; first compound 0.1265 µM
  relative viability: 0.503
NCI-H838; first compound 0.4 µM
  relative viability: 0.337
NCI-H838; first compound 1.265 µM
  relative viability: 0.393
NCI-H838; first compound 4 µM
  relative viability: 0.383
SK-LU-1; first compound 0.04 µM
  relative viability: 0.539
SK-LU-1; first compound 0.1265 µM
  relative viability: 0.572
SK-LU-1; first compound 0.4 µM
  relative viability: 0.539
SK-LU-1; first compound 1.265 µM
  relative viability: 0.594
SK-LU-1; first compound 4 µM
  relative viability: 0.6
NCI-H2405; first compound 0.04 µM
  relative viability: 0.286
NCI-H2405; first compound 0.1265 µM
  relative viability: 0.465
NCI-H2405; first compound 0.4 µM
  relative viability: 0.363
NCI-H2405; first compound 1.265 µM
  relative viability: 0.329
NCI-H2405; first compound 4 µM
  relative viability: 0.451
UMC-11; first compound 0.04 µM
  relative viability: 0.506
UMC-11; first compound 0.1265 µM
  relative viability: 0.937
UMC-11; first compound 0.4 µM
  relative viability: 0.692
UMC-11; first compound 1.265 µM
  relative viability: 0.815
UMC-11; first compound 4 µM
  relative viability: 0.49
LK-2; first compound 0.04 µM
  relative viability: 0.632
LK-2; first compound 0.1265 µM
  relative viability: 0.522
LK-2; first compound 0.4 µM
  relative viability: 0.546
LK-2; first compound 1.265 µM
  relative viability: 0.386
LK-2; first compound 4 µM
  relative viability: 0.614
ABC-1; first compound 0.04 µM
  relative viability: 0.614
ABC-1; first compound 0.1265 µM
  relative viability: 0.829
ABC-1; first compound 0.4 µM
  relative viability: 0.679
ABC-1; first compound 1.265 µM
  relative viability: 0.681
ABC-1; first compound 4 µM
  relative viability: 0.522
NCI-H1734; first compound 0.04 µM
  relative viability: 0.405
NCI-H1734; first compound 0.1265 µM
  relative viability: 0.423
NCI-H1734; first compound 0.4 µM
  relative viability: 0.411
NCI-H1734; first compound 1.265 µM
  relative viability: 0.358
NCI-H1734; first compound 4 µM
  relative viability: 0.476
HCC-366; first compound 0.04 µM
  relative viability: 0.101
HCC-366; first compound 0.1265 µM
  relative viability: 0.16
HCC-366; first compound 0.4 µM
  relative viability: 0.0782
HCC-366; first compound 1.265 µM
  relative viability: 0.157
HCC-366; first compound 4 µM
  relative viability: 0.212
